Laboratory results reported in patent EP0906294B1 (WARNER-LAMBERT COMPANY, priority 1996, dated 1997).
Where two headings read alike, the source gives them in different places.

How the values were obtained:
[1] = molecular target: T1, human recombinant dopamine D4.2 receptor subtype (Homo sapiens, UniProt P21917, DEL265-296); experiment: Receptor binding assay, [3H]spiperone competition, D4.2; conditions: for D2/D4 Ratio: ratio of D2 Ki to D4 Ki
T1 sequence (P21917 with tags, fused parts or gaps DEL265-296): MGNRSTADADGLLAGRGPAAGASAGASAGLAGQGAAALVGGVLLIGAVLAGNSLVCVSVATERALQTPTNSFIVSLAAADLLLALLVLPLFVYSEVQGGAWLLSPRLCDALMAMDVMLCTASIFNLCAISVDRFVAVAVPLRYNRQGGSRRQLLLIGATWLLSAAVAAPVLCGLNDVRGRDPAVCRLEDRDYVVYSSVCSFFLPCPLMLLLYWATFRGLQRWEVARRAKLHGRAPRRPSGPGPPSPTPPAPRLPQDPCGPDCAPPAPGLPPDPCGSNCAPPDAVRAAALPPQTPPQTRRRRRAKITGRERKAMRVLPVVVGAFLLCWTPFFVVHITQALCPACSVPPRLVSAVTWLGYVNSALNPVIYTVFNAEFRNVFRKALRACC
Description: (§1) The D2 receptor cDNA was subcloned into an expression vector, pRc/CMV. The plasmids were transfected by electroporation into CHO K1 cells. A single stable transfectant, resistant to the antibiotic G418, was isolated and selected for use in the binding studies.
(§2) Cells were grown until confluent, after which growth medium was removed and replaced with 0.02% ethylene diamine tetracetate (EDTA) in a phosphate-buffered saline solution (Sigma Chemical Co., St. Louis, Missouri) and scraped from the flasks. The cells were centrifuged at about 1000 × g for 10 minutes at […] and then resuspended in TEM buffer (25 mM Tris-HCl, pH 7.4, 5 mM EDTA, and 6 mM MgCl2) for D2 or the D4.2 buffer (50 mM Tris-HCl, pH 7.4, 5 mM EDTA, 1.5 mM CaCl2, 5 mM KCl, and 120 mM NaCl) and homogenized. The membranes were pelleted by centrifugation at 20,000 × g at […] for 20 minutes. Then the pellets were resuspended in appropriate buffer at 1 mL/flask and stored at -70°C until used in the receptor binding assay.
(§3) After 60 minutes incubation at 25°C, the incubations were terminated by rapid filtration through Whatmann GF/B glass fibre filters (soaked for 1 hour in 0.5% polyethylenimine) on a -cell harvester, with three washes of 1 mL ice-cold buffer. Individual filter disks containing the bound ligand were placed in counting vials with 4 mL of scintillation fluid (Ready Gel, Beckman Instrument Inc., Fullerton, California) and then counted in a Beckman LS-6800 liquid scintillation counter at an efficiency of 45%. Nonspecific binding was defined in presence of […] of haloperidol.
(§4) Saturation and competition binding data were analyzed using an iterative nonlinear least-square curve-fitting Ligand program. […] Experimental compounds were made up as stock solutions in dimethyl sulfoxide (DMSO). […] Each observation was carried out in triplicate. To allow these calculations, Ki values were measured for the interaction of various ligands with the receptor. […]

[2] = molecular target: human dopamine D2 (Long form) receptors (Homo sapiens, UniProt P14416); experiment: Receptor binding assay, [3H]spiperone competition, D2
Description: as §1, §2, §3, §4

[3] = CHO K1 cell membranes, 0.2 nM [3H]spiperone, 60 minutes at 25°C, apparent Ki from IC50 by Cheng and Prusoff
[4] = CHO K1 cell membranes, 0.2 nM [3H]spiperone, 60 minutes at 25°C, apparent Ki from IC50 by Cheng and Prusoff, read-out: D4 (Ki)

Sequence of human dopamine D2 (Long form) receptors (P14416 whole entry): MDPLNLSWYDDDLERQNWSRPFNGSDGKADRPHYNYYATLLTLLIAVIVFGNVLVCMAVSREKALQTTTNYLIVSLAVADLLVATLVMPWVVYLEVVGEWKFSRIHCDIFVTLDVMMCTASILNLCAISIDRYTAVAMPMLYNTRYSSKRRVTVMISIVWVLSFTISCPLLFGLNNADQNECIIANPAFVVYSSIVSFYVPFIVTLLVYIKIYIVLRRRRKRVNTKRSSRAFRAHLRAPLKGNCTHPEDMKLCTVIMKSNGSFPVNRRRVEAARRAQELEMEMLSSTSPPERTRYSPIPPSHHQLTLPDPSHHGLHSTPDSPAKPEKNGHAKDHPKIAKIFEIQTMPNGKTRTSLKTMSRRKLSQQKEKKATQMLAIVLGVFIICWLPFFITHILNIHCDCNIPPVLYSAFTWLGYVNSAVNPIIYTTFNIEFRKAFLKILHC

| Structure (SMILES) | Ki ([1]; read-out: D4 (Ki)) [nM] | Ki [2, 3] [nM] | D2/D4 Ratio [1] | other results |
| --- | --- | --- | --- | --- |
| NS(=O)(=O)c1ccc(N2CCN(Cc3ccc4c(c3)NC(=O)CO4)CC2)cc1 [Example 4, 4-[4-(3-oxo-3,4-dihydro-2H-benzo[1,4]-oxazin-6-ylmethyl)-piperazin-1-yl]-benzenesulfonamide] | 23.6 | – | – | – |
| O=C1COc2ccc(CN3CCN(c4ccccc4)CC3)cc2N1 [Example 8, 6-[4-phenyl-piperazin-1-ylmethyl]-4H-benzo[1,4]oxazin-3-one] | 18.3 | – | – | – |
| Cc1ccc(N2CCN(Cc3ccc4c(c3)OCC(=O)N4)CC2)cc1C [Example 14, 7-[4-(3,4-dimethyl-phenyl)-piperazin-1-ylmethyl]-4H-benzo[1,4]oxazine-3-one] | – | 346 | – | – |
| Cc1ccc(C2CCN(Cc3ccc4c(c3)NC(=O)CO4)CC2)cc1 [Example 16, 6-(4-p-tolyl-piperidin-1-ylmethyl)-4H-benxo[1,4]oxazin-3-one] | – | – | – | Ki [1, 4]: 2.84 nM |
| O=C1COc2ccc(CN3CCN(c4ccc(C(F)(F)F)cc4)CC3)cc2N1 [Example 31, 6-[4-(4-Trifluoromethyl-phenyl)-piperazin-l-ylmethyl] -4H-benzo[1,4]oxazin-3-one] | – | – | – | Ki [1, 4]: 173 nM |
| O=C1COc2cc(CN3CCN(c4ccc(Cl)cc4)CC3)ccc2N1 [Example 35, 7-[4-(4-Chloro-phenyl)-piperazin-1-ylmethyl]-4H-benzo[1,4]oxazin-3-one] | – | – | 132.5 | Ki [1]: 4.68 nM; Ki [2]: 620 nM |
| COc1ccc(C2CCN(Cc3ccc4c(c3)NC(=O)CO4)CC2)cc1 [Example 37, 6-[4-(4-Methoxy-phenyl) -piperidin-1-ylmethyl]-4H-benzo[1,4]oxazin-3-one] | – | 698 | – | – |

Further lines, with some results ahead:

| Ki ([1]; read-out: D4 (Ki)) [nM] | Ki [2, 3] [nM] | D2/D4 Ratio [1] | Structure (SMILES) | other results |
| --- | --- | --- | --- | --- |
| 6.09 | 129 | – | O=C1COc2cc(CN3CCN(c4ccccc4)CC3)ccc2N1 [Example 13, 7-(4-phenyl-piperazin-1-ylmethyl)-4H-benzo[1,4]oxazine-3-one] | – |
| 62.5 | – | – | O=C1COc2ccc(CN3CCN(c4ccc(Cl)cc4)CC3)cc2N1 [Example 32, 6-[4-(4-Chloro-phenyl)-piperazin-1-ylmethyl]-4H-benzo [1,4]oxazin-3-one] | – |
| 5 | ≥ 5880 | 1176.5 | COc1ccc(N2CCN(Cc3ccc4c(c3)OCC(=O)N4)CC2)cc1 [Example 34, 7-[4-(4-Methoxy-phenyl)-piperazin-1-ylmethyl]-4H-benzo[1,4]oxazin-3-one] | – |
| 2.61 | 610 | – | Cc1ccc(C2CCN(Cc3ccc4c(c3)OCC(=O)N4)CC2)cc1C [Example 36, 7-[4-(3,4-Dimethyl-phenyl)-piperidin-1-ylmethyl]-4H-benzo[1,4]oxazin-3-one] | – |
| 6.7 | 1130 | 168.1 | COc1ccc(C2CCN(Cc3ccc4c(c3)OCC(=O)N4)CC2)cc1 [Example 38, 7-[4-(4-Methoxy-phenyl)-piperidin-1-ylmethyl]-4H-benzo[1,4]oxazin-3-one] | – |
| 2.6 | 287 | 110.5 | Cc1ccc(C2CCN(Cc3ccc4c(c3)OCC(=O)N4)CC2)cc1 [Example 41, 7-(4-p-Tolyl-piperidin-1-ylmethyl)-4H-benzo[1,4]oxazin-3-one] | – |
